The source of these data is US12643859B2, “Pyridyl oxycarboxylic acid oxime derivative and preparation method therefor, weeding composition and application thereof” (Qingdao Kingagroot Chemical Compound Co., Ltd., priority 2018, dated 2026).

As a reminder, the inhibition is how much of the control response was suppressed.

Holding throughout (assay type): in vivo
The subject of data set [1] is Indica rice. The experiment in a line: Post-emergence test experiment, crop selectivity. The note with it: post-emergence spray, 3 weeks in greenhouse. The method, then: (§1) The above described growth inhibition rate is fresh weight inhibition rate.
(§2) Post-emergence test experiment: Monocotyledonous and dicotyledonous weed seeds and main crop seeds (i. e. wheat, corn, rice, soybean, cotton, oilseed, millet and sorghum.) were put into a plastic pot loaded with soil. Then covered with 0.5-2 cm soil, the seeds were allowed to grow in good greenhouse environment. The test plants were treated at 2-3 leaf stage 2 weeks after sowing. The test compounds of the invention were dissolved with acetone respectively, then added with tween-80, and using 1.5 liters per hectare of an emulsible concentrate of methyl oleate as a synergist, and diluted by certain amount of water to certain concentration. The solution was sprayed to the plants with a sprayer. Then the plants were cultured for 3 weeks in the greenhouse, and the experiment result of weed controlling effect was listed in tables 3-4.

Data set [2] deals with Japonica rice. The data set is described as follows: Post-emergence test experiment, crop selectivity. The following applies: for Activity level (fresh weight growth inhibition rate), Japonica rice: post-emergence spray, 3 weeks in greenhouse. The method, then: as §1, §2
For data set [3], the system named is Cyperus iria. The data set is described as follows: Post-emergence test experiment, weed control. The following applies: post-emergence spray, 3 weeks in greenhouse; for Activity level (fresh weight growth inhibition rate), Cyperus iria: 600 g a.i./ha plus water 450 kg/ha. The method, then: as §1, §2
The test system of data set [4] is Monocotyledonous and dicotyledonous weed seeds and main crop seeds. The data set is described as follows: Post-emergence test experiment (Table 3, 1000 g a.i./ha). The following applies: 3 weeks in greenhouse, fresh weight inhibition. How it is done: as §1, §2
[5] abbreviates: 600 g a.i./ha plus water 450 kg/ha.

Consider `CCCC(Cl)=NOC(=O)C(C)Oc1nc(F)c(Cl)c(N)c1Cl` (stereo not drawn) [Compound 75], for which, in data set [1] (setting [5]), the “Activity level (fresh weight growth inhibition rate), Indica rice” value is 0 (Level 0: the growth inhibition rate is less than 5%). In addition, the “Activity level (fresh weight growth inhibition rate), Japonica rice” value in data set [2] (setting [5]) is 0 (Level 0: the growth inhibition rate is less than 5%). Besides, the “Activity level (fresh weight growth inhibition rate), Cyperus iria” value in data set [3] is listed as 5 (Level 5: the growth inhibition rate is greater than 85%). In data set [4], the “Activity level (growth inhibition rate) Digitaria sanguinalis” value is listed as 5 (Level 5: the growth inhibition rate is greater than 85%), the “Activity level (growth inhibition rate) Echinochloa crusgalli” value is listed as 5 (Level 5: the growth inhibition rate is greater than 85%), the “Activity level (growth inhibition rate) Galium spurium” value is 5 (Level 5: the growth inhibition rate is greater than 85%) and the “Activity level (growth inhibition rate) Leptochloa chinensis” value is on record as 5 (Level 5: the growth inhibition rate is greater than 85%). Moreover, in data set [4], the “Activity level (growth inhibition rate) Monochoria Vaginalis” value is 5 (Level 5: the growth inhibition rate is greater than 85%), the “Activity level (growth inhibition rate) Murdannia triquetra” value was 5 (Level 5: the growth inhibition rate is greater than 85%) and the “Activity level (growth inhibition rate) Setaria viridis” value is on record as 5 (Level 5: the growth inhibition rate is greater than 85%).

`CC(Oc1nc(F)c(Cl)c(N)c1Cl)C(=O)ON=C(C#N)c1ccc(Cl)cc1` (stereo not drawn) [Compound 87]: the “Activity level (fresh weight growth inhibition rate), Indica rice” value in data set [1] (setting [5]) was 0 (Level 0: the growth inhibition rate is less than 5%). For the same compound, in data set [2] (setting [5]), the “Activity level (fresh weight growth inhibition rate), Japonica rice” value is listed as 0 (Level 0: the growth inhibition rate is less than 5%). Moreover, the “Activity level (fresh weight growth inhibition rate), Cyperus iria” value in data set [3] is listed as 5 (Level 5: the growth inhibition rate is greater than 85%). In data set [4], the “Activity level (growth inhibition rate) Digitaria sanguinalis” value is 5 (Level 5: the growth inhibition rate is greater than 85%), the “Activity level (growth inhibition rate) Echinochloa crusgalli” value is on record as 5 (Level 5: the growth inhibition rate is greater than 85%), the “Activity level (growth inhibition rate) Galium spurium” value is on record as 5 (Level 5: the growth inhibition rate is greater than 85%) and the “Activity level (growth inhibition rate) Leptochloa chinensis” value was 5 (Level 5: the growth inhibition rate is greater than 85%). Further, in data set [4], the “Activity level (growth inhibition rate) Monochoria Vaginalis” value is 5 (Level 5: the growth inhibition rate is greater than 85%), the “Activity level (growth inhibition rate) Murdannia triquetra” value is recorded as 5 (Level 5: the growth inhibition rate is greater than 85%) and the “Activity level (growth inhibition rate) Setaria viridis” value is given as 5 (Level 5: the growth inhibition rate is greater than 85%).

For `CC(Oc1nc(F)c(Cl)c(N)c1Cl)C(=O)ON=C(C(=O)NCc1ccccc1)c1ccccc1` (stereo not drawn) [Compound 101], in data set [4], the “Activity level (growth inhibition rate) Digitaria sanguinalis” value was 5 (Level 5: the growth inhibition rate is greater than 85%), the “Activity level (growth inhibition rate) Echinochloa crusgalli” value is listed as 5 (Level 5: the growth inhibition rate is greater than 85%), the “Activity level (growth inhibition rate) Galium spurium” value is recorded as 5 (Level 5: the growth inhibition rate is greater than 85%) and the “Activity level (growth inhibition rate) Leptochloa chinensis” value is 5 (Level 5: the growth inhibition rate is greater than 85%). Moreover, in data set [4], the “Activity level (growth inhibition rate) Monochoria Vaginalis” value is 5 (Level 5: the growth inhibition rate is greater than 85%), the “Activity level (growth inhibition rate) Murdannia triquetra” value was 5 (Level 5: the growth inhibition rate is greater than 85%) and the “Activity level (growth inhibition rate) Setaria viridis” value is 5 (Level 5: the growth inhibition rate is greater than 85%).

With `CSC(=O)C(=NOC(=O)C(C)Oc1nc(F)c(Cl)c(N)c1Cl)C(=O)NCc1ccc(Cl)cc1` (stereo not drawn) [Compound 102], in data set [4], the “Activity level (growth inhibition rate) Digitaria sanguinalis” value was 5 (Level 5: the growth inhibition rate is greater than 85%), the “Activity level (growth inhibition rate) Echinochloa crusgalli” value is 5 (Level 5: the growth inhibition rate is greater than 85%), the “Activity level (growth inhibition rate) Galium spurium” value is given as 5 (Level 5: the growth inhibition rate is greater than 85%) and the “Activity level (growth inhibition rate) Leptochloa chinensis” value is 5 (Level 5: the growth inhibition rate is greater than 85%). In addition, in data set [4], the “Activity level (growth inhibition rate) Monochoria Vaginalis” value is recorded as 5 (Level 5: the growth inhibition rate is greater than 85%), the “Activity level (growth inhibition rate) Murdannia triquetra” value is given as 5 (Level 5: the growth inhibition rate is greater than 85%) and the “Activity level (growth inhibition rate) Setaria viridis” value is 5 (Level 5: the growth inhibition rate is greater than 85%).

For `COc1ccc(CNC(=O)C(C)=NOC(=O)C(C)Oc2nc(F)c(Cl)c(N)c2Cl)cc1` (stereo not drawn) [Compound 103], in data set [4], the “Activity level (growth inhibition rate) Digitaria sanguinalis” value is given as 5 (Level 5: the growth inhibition rate is greater than 85%), the “Activity level (growth inhibition rate) Echinochloa crusgalli” value is 5 (Level 5: the growth inhibition rate is greater than 85%), the “Activity level (growth inhibition rate) Galium spurium” value was 5 (Level 5: the growth inhibition rate is greater than 85%) and the “Activity level (growth inhibition rate) Leptochloa chinensis” value is given as 5 (Level 5: the growth inhibition rate is greater than 85%). In data set [4], the “Activity level (growth inhibition rate) Monochoria Vaginalis” value was 5 (Level 5: the growth inhibition rate is greater than 85%), the “Activity level (growth inhibition rate) Murdannia triquetra” value was 5 (Level 5: the growth inhibition rate is greater than 85%) and the “Activity level (growth inhibition rate) Setaria viridis” value was 5 (Level 5: the growth inhibition rate is greater than 85%).

For `CC(Oc1nc(F)c(Cl)c(N)c1Cl)C(=O)ON=C(C(=O)NCCc1ccccc1)c1ccccc1` (stereo not drawn) [Compound 105], in data set [4], the “Activity level (growth inhibition rate) Digitaria sanguinalis” value is reported as 5 (Level 5: the growth inhibition rate is greater than 85%), the “Activity level (growth inhibition rate) Echinochloa crusgalli” value is on record as 5 (Level 5: the growth inhibition rate is greater than 85%), the “Activity level (growth inhibition rate) Galium spurium” value is on record as 5 (Level 5: the growth inhibition rate is greater than 85%) and the “Activity level (growth inhibition rate) Leptochloa chinensis” value is 5 (Level 5: the growth inhibition rate is greater than 85%). For the same compound, in data set [4], the “Activity level (growth inhibition rate) Monochoria Vaginalis” value is given as 5 (Level 5: the growth inhibition rate is greater than 85%), the “Activity level (growth inhibition rate) Murdannia triquetra” value is recorded as 5 (Level 5: the growth inhibition rate is greater than 85%) and the “Activity level (growth inhibition rate) Setaria viridis” value was 5 (Level 5: the growth inhibition rate is greater than 85%).

As for `C=COC(=O)C(=NOC(=O)C(C)Oc1nc(F)c(Cl)c(N)c1Cl)C(=O)N(C)c1ccccc1` (stereo not drawn) [Compound 106], in data set [4], the “Activity level (growth inhibition rate) Digitaria sanguinalis” value is 5 (Level 5: the growth inhibition rate is greater than 85%), the “Activity level (growth inhibition rate) Echinochloa crusgalli” value is given as 5 (Level 5: the growth inhibition rate is greater than 85%), the “Activity level (growth inhibition rate) Galium spurium” value was 5 (Level 5: the growth inhibition rate is greater than 85%) and the “Activity level (growth inhibition rate) Leptochloa chinensis” value is reported as 5 (Level 5: the growth inhibition rate is greater than 85%). Moreover, in data set [4], the “Activity level (growth inhibition rate) Monochoria Vaginalis” value is 5 (Level 5: the growth inhibition rate is greater than 85%), the “Activity level (growth inhibition rate) Murdannia triquetra” value is listed as 5 (Level 5: the growth inhibition rate is greater than 85%) and the “Activity level (growth inhibition rate) Setaria viridis” value is given as 5 (Level 5: the growth inhibition rate is greater than 85%).

For `CC(Oc1nc(F)c(Cl)c(N)c1Cl)C(=O)ON=C1CCCCC1` (stereo not drawn) [Compound 116], in data set [4], the “Activity level (growth inhibition rate) Digitaria sanguinalis” value was 5 (Level 5: the growth inhibition rate is greater than 85%), the “Activity level (growth inhibition rate) Echinochloa crusgalli” value is listed as 5 (Level 5: the growth inhibition rate is greater than 85%), the “Activity level (growth inhibition rate) Galium spurium” value is 5 (Level 5: the growth inhibition rate is greater than 85%) and the “Activity level (growth inhibition rate) Leptochloa chinensis” value was 5 (Level 5: the growth inhibition rate is greater than 85%). Also, in data set [4], the “Activity level (growth inhibition rate) Monochoria Vaginalis” value was 5 (Level 5: the growth inhibition rate is greater than 85%), the “Activity level (growth inhibition rate) Murdannia triquetra” value is 5 (Level 5: the growth inhibition rate is greater than 85%) and the “Activity level (growth inhibition rate) Setaria viridis” value was 5 (Level 5: the growth inhibition rate is greater than 85%).

Take `CC(Oc1nc(F)c(Cl)c(N)c1Cl)C(=O)O` (stereo not drawn) [Control compound A, reference compound]: the “Activity level (fresh weight growth inhibition rate), Indica rice” value in data set [1] (300 g a.i./ha) is 3 (Level 3: the growth inhibition rate is equal to or greater than 40% and less than 60%); in data set [1] (setting [5]), 3 (Level 3: the growth inhibition rate is equal to or greater than 40% and less than 60%). The “Activity level (fresh weight growth inhibition rate), Japonica rice” value in data set [2] (300 g a.i./ha) is 2 (Level 2: the growth inhibition rate is equal to or greater than 20% and less than 40%); in data set [2] (setting [5]), 3 (Level 3: the growth inhibition rate is equal to or greater than 40% and less than 60%). Moreover, in data set [2] (post-emergence, regardless of japonica or indica rice), the “Selectivity to / inhibition of rice (in words)” value was “great inhibition to rice”. The inhibition at 300 g/ha in data set [3] (Cyperus iria, 504 h, 300 g a.i./ha, read-out: Activity level (fresh weight growth inhibition rate), Cyperus iria) lay within 60 to 85%. For the same compound, the “Activity level (fresh weight growth inhibition rate), Cyperus iria” value in data set [3] is given as 5 (Level 5: the growth inhibition rate is greater than 85%).
